How the values were obtained:
Assay in all cases: radiometric filter-binding kinase assay
[1] = biological target: IRAK1 (human) (UniProt P51617)
[2] = test system: PRKAA1 or PRKAA2 (rat); details: accession and sequence are those of the human protein
[3] = test system: OXSR1 (human), O95747 [T185E]
[4] = biological target: TSSK1B (human) (UniProt Q9BXA7)
[5] = biological target: TTBK1 (human) (UniProt Q5TCY1)
[6] = biological target: MAPKAPK3 (human) (UniProt Q16644)
[7] = biological target: ABL1 (human) (UniProt P00519)
[8] = biological target: TEK (human) (UniProt Q02763)
TEK (human), sequence (Q02763 whole entry, looked up): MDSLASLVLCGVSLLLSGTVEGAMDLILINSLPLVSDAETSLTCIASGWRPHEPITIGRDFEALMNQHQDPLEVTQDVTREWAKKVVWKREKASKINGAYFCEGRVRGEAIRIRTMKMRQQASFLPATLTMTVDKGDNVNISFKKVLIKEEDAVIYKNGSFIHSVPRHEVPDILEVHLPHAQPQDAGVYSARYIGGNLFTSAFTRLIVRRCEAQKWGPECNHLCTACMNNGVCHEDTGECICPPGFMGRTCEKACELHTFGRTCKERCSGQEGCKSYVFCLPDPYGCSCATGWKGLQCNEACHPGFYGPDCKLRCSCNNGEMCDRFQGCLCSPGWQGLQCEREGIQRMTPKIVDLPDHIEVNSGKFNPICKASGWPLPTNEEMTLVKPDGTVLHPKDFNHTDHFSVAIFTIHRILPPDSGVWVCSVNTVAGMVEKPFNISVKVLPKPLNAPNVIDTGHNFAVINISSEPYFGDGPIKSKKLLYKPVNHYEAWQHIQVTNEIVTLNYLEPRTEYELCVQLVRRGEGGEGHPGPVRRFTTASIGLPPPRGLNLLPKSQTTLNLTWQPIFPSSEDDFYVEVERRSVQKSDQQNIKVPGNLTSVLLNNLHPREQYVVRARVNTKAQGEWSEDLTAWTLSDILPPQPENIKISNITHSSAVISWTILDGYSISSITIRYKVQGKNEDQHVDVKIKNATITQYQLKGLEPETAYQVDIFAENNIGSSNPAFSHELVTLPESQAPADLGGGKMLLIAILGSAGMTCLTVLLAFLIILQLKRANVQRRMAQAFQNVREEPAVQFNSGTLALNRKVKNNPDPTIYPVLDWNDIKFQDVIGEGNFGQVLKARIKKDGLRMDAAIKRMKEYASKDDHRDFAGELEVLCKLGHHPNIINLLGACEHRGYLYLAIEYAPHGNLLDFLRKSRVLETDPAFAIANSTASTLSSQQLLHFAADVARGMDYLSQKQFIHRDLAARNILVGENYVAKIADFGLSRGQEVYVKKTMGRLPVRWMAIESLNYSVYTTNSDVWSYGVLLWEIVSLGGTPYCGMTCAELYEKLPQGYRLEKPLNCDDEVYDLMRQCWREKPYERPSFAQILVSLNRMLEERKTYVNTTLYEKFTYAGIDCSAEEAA

[9] = biological target: ZAP70 (human) (UniProt P43403)
ZAP70 (human), sequence (P43403 whole entry, looked up): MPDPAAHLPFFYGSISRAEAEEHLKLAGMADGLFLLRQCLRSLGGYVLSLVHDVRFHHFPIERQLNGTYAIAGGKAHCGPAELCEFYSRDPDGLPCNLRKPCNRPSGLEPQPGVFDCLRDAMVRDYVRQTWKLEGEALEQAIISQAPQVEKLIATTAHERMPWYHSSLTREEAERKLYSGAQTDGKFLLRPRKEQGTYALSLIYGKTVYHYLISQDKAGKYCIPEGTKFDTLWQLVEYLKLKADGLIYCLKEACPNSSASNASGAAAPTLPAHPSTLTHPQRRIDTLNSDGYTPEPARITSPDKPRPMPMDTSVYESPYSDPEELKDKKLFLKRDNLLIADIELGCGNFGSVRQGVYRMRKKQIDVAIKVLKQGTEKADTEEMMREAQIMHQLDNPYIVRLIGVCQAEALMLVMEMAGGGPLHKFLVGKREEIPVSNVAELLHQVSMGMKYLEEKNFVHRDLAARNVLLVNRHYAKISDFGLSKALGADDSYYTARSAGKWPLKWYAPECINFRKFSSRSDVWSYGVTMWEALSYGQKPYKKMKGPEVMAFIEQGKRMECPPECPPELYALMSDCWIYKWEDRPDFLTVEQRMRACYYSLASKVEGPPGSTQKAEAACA

[10] = biological target: STK33 (human) (UniProt Q9BYT3)
STK33 (human), sequence (Q9BYT3 whole entry, looked up): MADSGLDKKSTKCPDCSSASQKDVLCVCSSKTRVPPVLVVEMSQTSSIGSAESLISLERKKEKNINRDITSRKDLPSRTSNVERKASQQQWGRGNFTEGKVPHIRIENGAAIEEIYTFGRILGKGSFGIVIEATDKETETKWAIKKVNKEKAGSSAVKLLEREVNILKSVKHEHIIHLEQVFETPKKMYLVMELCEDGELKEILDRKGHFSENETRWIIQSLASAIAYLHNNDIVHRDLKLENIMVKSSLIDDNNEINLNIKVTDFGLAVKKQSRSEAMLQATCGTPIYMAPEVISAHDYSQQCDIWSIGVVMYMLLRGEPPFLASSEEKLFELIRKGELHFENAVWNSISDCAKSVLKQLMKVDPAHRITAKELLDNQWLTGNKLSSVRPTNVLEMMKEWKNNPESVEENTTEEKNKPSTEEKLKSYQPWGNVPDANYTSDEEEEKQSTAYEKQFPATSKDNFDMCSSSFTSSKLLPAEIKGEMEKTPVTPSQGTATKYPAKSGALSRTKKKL

[11] = biological target: PRKCG (human) (UniProt P05129)
[12] = biological target: STK16 (human) (UniProt O75716)
STK16 (human), sequence (O75716 whole entry, looked up): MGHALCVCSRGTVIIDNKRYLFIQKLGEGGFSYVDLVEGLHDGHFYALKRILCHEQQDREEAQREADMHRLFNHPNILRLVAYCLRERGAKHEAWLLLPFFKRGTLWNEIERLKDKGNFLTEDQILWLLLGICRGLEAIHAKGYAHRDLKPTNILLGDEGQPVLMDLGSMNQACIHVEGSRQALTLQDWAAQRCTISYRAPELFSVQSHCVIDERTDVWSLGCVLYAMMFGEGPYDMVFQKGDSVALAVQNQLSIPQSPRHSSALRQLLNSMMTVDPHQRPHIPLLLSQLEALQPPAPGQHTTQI

[13] = biological target: PTK6 (human) (UniProt Q13882)
[14] = biological target: TESK1 (human) (UniProt Q15569)
[15] = biological target: EIF2AK3 (human) (UniProt Q9NZJ5)
EIF2AK3 (human), sequence (Q9NZJ5 whole entry, looked up): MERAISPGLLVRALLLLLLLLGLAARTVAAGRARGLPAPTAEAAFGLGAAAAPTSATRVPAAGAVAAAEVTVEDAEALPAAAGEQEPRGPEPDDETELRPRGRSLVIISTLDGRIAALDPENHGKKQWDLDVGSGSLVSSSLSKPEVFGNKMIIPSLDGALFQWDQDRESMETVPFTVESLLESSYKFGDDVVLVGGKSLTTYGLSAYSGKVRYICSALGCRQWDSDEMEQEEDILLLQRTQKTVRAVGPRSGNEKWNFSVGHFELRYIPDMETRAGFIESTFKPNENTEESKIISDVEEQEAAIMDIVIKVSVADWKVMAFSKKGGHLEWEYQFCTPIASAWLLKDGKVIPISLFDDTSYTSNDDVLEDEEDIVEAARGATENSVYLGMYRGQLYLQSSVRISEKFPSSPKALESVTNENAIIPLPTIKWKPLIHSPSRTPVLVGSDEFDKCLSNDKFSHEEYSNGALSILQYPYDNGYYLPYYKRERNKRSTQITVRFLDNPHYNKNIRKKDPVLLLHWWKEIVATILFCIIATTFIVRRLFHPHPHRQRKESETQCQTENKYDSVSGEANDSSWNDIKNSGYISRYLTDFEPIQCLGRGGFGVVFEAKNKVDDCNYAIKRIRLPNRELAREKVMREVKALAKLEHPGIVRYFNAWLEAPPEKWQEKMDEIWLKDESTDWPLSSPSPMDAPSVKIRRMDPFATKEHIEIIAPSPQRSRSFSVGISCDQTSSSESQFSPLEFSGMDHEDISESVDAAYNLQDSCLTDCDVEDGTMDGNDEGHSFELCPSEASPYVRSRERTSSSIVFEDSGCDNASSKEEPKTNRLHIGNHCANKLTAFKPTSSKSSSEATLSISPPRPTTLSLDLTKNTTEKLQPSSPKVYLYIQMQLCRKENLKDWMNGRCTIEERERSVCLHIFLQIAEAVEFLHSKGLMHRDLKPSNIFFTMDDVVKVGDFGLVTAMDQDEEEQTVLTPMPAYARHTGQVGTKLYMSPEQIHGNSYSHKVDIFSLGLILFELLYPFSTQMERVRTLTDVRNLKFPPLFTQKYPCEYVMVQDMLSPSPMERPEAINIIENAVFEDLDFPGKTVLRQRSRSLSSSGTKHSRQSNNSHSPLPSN

[16] = biological target: TLK1 (human) (UniProt Q9UKI8)

OXSR1 (human), O95747 [T185E], sequence (O95747 whole entry T185E, looked up): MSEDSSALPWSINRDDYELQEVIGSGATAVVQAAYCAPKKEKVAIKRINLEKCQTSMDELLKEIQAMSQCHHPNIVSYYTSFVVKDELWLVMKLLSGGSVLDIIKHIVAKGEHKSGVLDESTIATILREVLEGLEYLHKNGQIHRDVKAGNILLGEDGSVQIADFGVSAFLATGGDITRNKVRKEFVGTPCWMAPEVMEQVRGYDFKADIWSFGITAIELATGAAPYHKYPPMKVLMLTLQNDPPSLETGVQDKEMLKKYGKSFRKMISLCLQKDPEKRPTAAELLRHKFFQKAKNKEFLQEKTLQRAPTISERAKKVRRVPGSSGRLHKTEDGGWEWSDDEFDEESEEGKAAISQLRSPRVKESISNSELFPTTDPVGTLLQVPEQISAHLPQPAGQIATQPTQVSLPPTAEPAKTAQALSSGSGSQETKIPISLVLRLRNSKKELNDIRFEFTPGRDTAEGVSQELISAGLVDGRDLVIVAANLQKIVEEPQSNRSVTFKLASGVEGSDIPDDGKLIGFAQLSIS
IRAK1 (human), sequence (P51617 whole entry, looked up): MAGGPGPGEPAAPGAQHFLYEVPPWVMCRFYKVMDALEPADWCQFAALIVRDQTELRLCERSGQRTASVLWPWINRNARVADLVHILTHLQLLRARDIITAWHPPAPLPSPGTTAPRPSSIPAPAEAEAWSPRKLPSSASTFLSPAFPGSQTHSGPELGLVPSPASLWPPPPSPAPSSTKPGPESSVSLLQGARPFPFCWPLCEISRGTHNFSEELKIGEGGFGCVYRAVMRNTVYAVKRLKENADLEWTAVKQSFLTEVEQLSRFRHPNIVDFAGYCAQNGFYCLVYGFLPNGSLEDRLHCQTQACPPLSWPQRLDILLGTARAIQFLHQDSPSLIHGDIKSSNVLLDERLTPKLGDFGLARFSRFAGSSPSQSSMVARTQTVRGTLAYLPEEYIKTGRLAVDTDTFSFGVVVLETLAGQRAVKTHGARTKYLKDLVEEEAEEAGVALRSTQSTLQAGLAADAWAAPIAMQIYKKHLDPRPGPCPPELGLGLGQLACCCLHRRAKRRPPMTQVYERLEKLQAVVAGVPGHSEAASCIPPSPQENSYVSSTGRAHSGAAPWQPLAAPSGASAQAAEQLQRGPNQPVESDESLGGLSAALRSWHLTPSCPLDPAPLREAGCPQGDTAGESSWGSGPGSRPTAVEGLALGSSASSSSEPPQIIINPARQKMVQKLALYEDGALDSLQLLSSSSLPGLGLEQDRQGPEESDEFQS

C=CC(=O)N1CCC[C@@H](n2nc(-c3ccc(Oc4ccccc4)cc3)c3c(N)ncnc32)C1
residual activity ([1]; compound 0.1 µM): 108%
residual activity ([1]; compound 1.0 µM): 115%
residual activity ([2]; compound 0.1 µM): 88%
residual activity ([2]; compound 1.0 µM): 101%
residual activity ([2]; compound 10.0 µM): 78%
residual activity ([3]; compound 0.1 µM): 96%
residual activity ([3]; compound 1.0 µM): 96%
residual activity ([3]; compound 10.0 µM): 82%
residual activity ([4]; compound 0.1 µM): 105%
residual activity ([4]; compound 1.0 µM): 108%
residual activity ([4]; compound 10.0 µM): 68%
residual activity ([5]; compound 0.1 µM): 78%
residual activity ([5]; compound 1.0 µM): 100%
residual activity ([5]; compound 10.0 µM): 81%
residual activity ([6]; compound 0.1 µM): 109%
residual activity ([6]; compound 1.0 µM): 109%
residual activity ([7]; compound 0.1 µM): 87%
residual activity ([7]; compound 1.0 µM): 80%
residual activity ([7]; compound 10.0 µM): 39%
residual activity ([8]; compound 0.1 µM): 71%
residual activity ([8]; compound 1.0 µM): 34%
residual activity ([8]; compound 10.0 µM): 9%
residual activity ([9]; compound 0.1 µM): 93%
residual activity ([9]; compound 1.0 µM): 107%
residual activity ([9]; compound 10.0 µM): 101%
residual activity ([10]; compound 0.1 µM): 97%
residual activity ([10]; compound 1.0 µM): 84%
residual activity ([11]; compound 0.1 µM): 85%
residual activity ([11]; compound 1.0 µM): 104%
residual activity ([11]; compound 10.0 µM): 99%
residual activity ([12]; compound 0.1 µM): 99%
residual activity ([12]; compound 1.0 µM): 117%
residual activity ([12]; compound 10.0 µM): 104%
residual activity ([13]; compound 0.1 µM): 10%
residual activity ([13]; compound 1.0 µM): 4%
residual activity ([13]; compound 10.0 µM): 8%
residual activity ([14]; compound 0.1 µM): 69%
residual activity ([14]; compound 1.0 µM): 71%
residual activity ([14]; compound 10.0 µM): 38%
residual activity ([15]; compound 0.1 µM): 110%
residual activity ([15]; compound 1.0 µM): 81%
residual activity ([15]; compound 10.0 µM): 28%
residual activity ([16]; compound 1.0 µM): 99%

Cc1cc(N=Nc2cc(S(=O)(=O)O)c(C)cc2C)c(N)cc1O
residual activity ([1]; compound 100.0 µM): 104%
residual activity ([2]; compound 100.0 µM): 71%
residual activity ([3]; compound 100.0 µM): 97%
residual activity ([4]; compound 100.0 µM): 107%
residual activity ([5]; compound 100.0 µM): 94%
residual activity ([6]; compound 100.0 µM): 62%
residual activity ([7]; compound 100.0 µM): 92%
residual activity ([8]; compound 100.0 µM): 103%
residual activity ([9]; compound 100.0 µM): 103%
residual activity ([10]; compound 100.0 µM): 107%
residual activity ([11]; compound 100.0 µM): 55%
residual activity ([12]; compound 100.0 µM): 111%
residual activity ([13]; compound 100.0 µM): 100%
residual activity ([14]; compound 100.0 µM): 73%
residual activity ([15]; compound 100.0 µM): 94%
residual activity ([16]; compound 100.0 µM): 108%

O=C(Nc1nc2cc(C(F)(F)F)cc(NC3CC3)n2n1)c1cccnc1
residual activity ([1]; compound 0.01 µM): 94%
residual activity ([1]; compound 0.1 µM): 100%
residual activity ([1]; compound 1.0 µM): 89%
residual activity ([2]; compound 0.01 µM): 108%
residual activity ([2]; compound 0.1 µM): 93%
residual activity ([2]; compound 1.0 µM): 108%
residual activity ([3]; compound 0.01 µM): 83%
residual activity ([3]; compound 0.1 µM): 114%
residual activity ([3]; compound 1.0 µM): 92%
residual activity ([6]; compound 0.01 µM): 97%
residual activity ([6]; compound 0.1 µM): 114%
residual activity ([6]; compound 1.0 µM): 97%
residual activity ([7]; compound 0.01 µM): 95%
residual activity ([7]; compound 1.0 µM): 97%
residual activity ([8]; compound 0.01 µM): 94%
residual activity ([8]; compound 0.1 µM): 103%
residual activity ([8]; compound 1.0 µM): 69%
residual activity ([9]; compound 0.01 µM): 76%
residual activity ([9]; compound 0.1 µM): 77%
residual activity ([9]; compound 1.0 µM): 84%
residual activity ([10]; compound 0.01 µM): 97%
residual activity ([10]; compound 0.1 µM): 106%
residual activity ([10]; compound 1.0 µM): 88%
residual activity ([11]; compound 0.01 µM): 101%
residual activity ([11]; compound 0.1 µM): 115%
residual activity ([11]; compound 1.0 µM): 106%
residual activity ([12]; compound 0.01 µM): 82%
residual activity ([12]; compound 0.1 µM): 96%
residual activity ([12]; compound 1.0 µM): 83%
residual activity ([13]; compound 0.01 µM): 114%
residual activity ([13]; compound 0.1 µM): 130%
residual activity ([13]; compound 1.0 µM): 124%
residual activity ([15]; compound 0.01 µM): 109%
residual activity ([15]; compound 0.1 µM): 117%
residual activity ([15]; compound 1.0 µM): 104%
residual activity ([16]; compound 0.01 µM): 107%
residual activity ([16]; compound 0.1 µM): 99%
residual activity ([16]; compound 1.0 µM): 90%

O=C(NOC[C@H](O)CO)c1ccc(F)c(F)c1Nc1ccc(I)cc1Cl
residual activity ([1]; compound 1.0 µM): 84%
residual activity ([1]; compound 10.0 µM): 89%
residual activity ([2]; compound 1.0 µM): 110%
residual activity ([2]; compound 10.0 µM): 107%
residual activity ([3]; compound 1.0 µM): 95%
residual activity ([3]; compound 10.0 µM): 93%
residual activity ([6]; compound 1.0 µM): 90%
residual activity ([6]; compound 10.0 µM): 89%
residual activity ([7]; compound 1.0 µM): 103%
residual activity ([7]; compound 10.0 µM): 98%
residual activity ([8]; compound 10.0 µM): 96%
residual activity ([9]; compound 1.0 µM): 84%
residual activity ([9]; compound 10.0 µM): 100%
residual activity ([10]; compound 10.0 µM): 107%
residual activity ([11]; compound 1.0 µM): 91%
residual activity ([11]; compound 10.0 µM): 99%
residual activity ([12]; compound 1.0 µM): 85%
residual activity ([12]; compound 10.0 µM): 101%
residual activity ([13]; compound 1.0 µM): 115%
residual activity ([13]; compound 10.0 µM): 121%
residual activity ([15]; compound 1.0 µM): 96%
residual activity ([15]; compound 10.0 µM): 105%
residual activity ([16]; compound 1.0 µM): 96%
residual activity ([16]; compound 10.0 µM): 104%
